# In PubChem BioAssay AID1996:
# Details: buffer; pH 7.4; 200.0 µM
row,SMILES,solubility kinetic
1,CC1CCN(CC(=O)NC2CCCCC2)CC1.Cl,37.4 µg/mL
2,COc1ccccc1CN(C)C(=O)c1cc(C)nc2ccccc12,> 48.1 µg/mL
3,COC(=O)CCc1nc2ccccc2nc1OC,> 36.9 µg/mL
4,O=C1CCCCCCCCCC/C(=N\O)CCCO1,9.8 µg/mL
5,CCN1CCN(C(=O)/C(=C/c2cccs2)NC(=O)c2ccc(C)c(C)c2)CC1,48.5 µg/mL
6,Cc1ccc2[nH]c(C)c(CC(=O)NCc3ccccc3)c2c1,> 43.9 µg/mL
7,CC(C)(CO)NC(=S)NCc1ccco1,> 34.2 µg/mL
8,O=C(CSc1ccc([N+](=O)[O-])cc1)OCC(=O)N1CCCC1=O,50.3 µg/mL
9,O=C(CCC(=O)N1CCCCCC1)NCc1ccc(F)cc1,> 46 µg/mL
10,CC(O)Cn1cnc2c1c(=O)n(C)c(=O)n2C (stereo not given),> 35.7 µg/mL
11,Br.C(CCCN1CCCCC1)CCN1CCCCC1,61.8 µg/mL
12,COc1ccc(SCC2CN(C)CCC2c2ccc(F)cc2)cc1.Cl (stereo not given),32.5 µg/mL
13,Cc1ccc(C)c(C(=O)Nc2nc3ccccc3[nH]2)c1,0.4 µg/mL
14,O=C(OCC(=O)N1CCCc2ccccc21)c1ccccc1OC(F)F,29.7 µg/mL
15,COC(=O)c1ccc2[nH]c3c(c2c1)CC(C)CC3 (stereo not given),0.9 µg/mL
16,CCNC(=O)C(=O)Nc1cc2c3c(c1)CCN3C(=O)CC2,> 43.1 µg/mL
17,Cc1ccccc1Cn1c(=O)n(C)c(=O)c2sccc21,5.9 µg/mL
18,CN(C)c1ccc(Nc2nc(N)c3ccccc3n2)cc1.Cl,> 47.4 µg/mL
19,OC(CN1CCOCC1)Cn1cnc2ccccc21 (stereo not given),> 39.2 µg/mL
20,O=C(CSc1ccccc1)NC1CCCCCC1,> 39.5 µg/mL

row,SMILES,solubility kinetic
1,CC1(C)C2([N+](=O)[O-])CN3CC1([N+](=O)[O-])CN(C2)C3c1ccccn1 (stereo not given),7.9 µg/mL
2,CCNC(=S)Nc1ccc2ncoc2c1,> 33.2 µg/mL
3,CCCCNC(=O)COC(=O)c1ccccc1F,37.9 µg/mL
4,CN1C2CCC1CC(NC(=O)CSCc1ccc(Cl)cc1Cl)C2 (stereo not given),> 56 µg/mL
5,CC(C)CC(Nc1ncnc2scc(-c3ccccc3)c12)C(=O)O (stereo not given),> 51.2 µg/mL
6,O=C(CSc1ccccn1)Nc1ccc(F)c([N+](=O)[O-])c1,43.5 µg/mL
7,COc1ccc(/C(N)=N/OC(=O)CCC2CCCC2)cc1OC,8 µg/mL
8,CC(C)NC(=O)COc1cccc2ccccc12,31.8 µg/mL
9,CC(=O)N1N=C(N)SC1(C)C,> 26 µg/mL
10,CCCCNC(=S)N1CCn2cccc2C1c1ccccc1 (stereo not given),5.5 µg/mL
11,Cc1nc2ccccc2c2oc(C(=O)N3CCC(C)CC3)cc12,> 46.3 µg/mL
12,Cc1ccc(NC(=O)CSc2nccn2C)cc1F,> 41.9 µg/mL
13,Cc1cc(Nc2ccc(Cl)cc2)nc(N2CCOCC2)n1,1.8 µg/mL
14,CC(C(=O)Nc1cc(Cl)cc(Cl)c1)N1CCCC1 (stereo not given),> 43.1 µg/mL
15,Cc1ccc(S(=O)(=O)N2CCN(Cc3ccco3)CC2)cc1C,13.1 µg/mL
16,CC(C)(C)NC(=O)COC(=O)C1c2ccccc2Oc2ccccc21,48.9 µg/mL
17,NC(=O)c1ccc[n+](CC(=O)c2ccc(F)cc2)c1.[Br-],> 50.9 µg/mL
18,COc1ccccc1CNC(=O)/C=C/C(=O)O,> 35.3 µg/mL
19,CN(Cc1cccs1)C(=O)COc1cccc2c1OC(C)(C)C2,> 49.7 µg/mL
20,O=C(Nc1ccncc1)OCc1ccccc1,> 34.2 µg/mL

row,SMILES,solubility kinetic
1,Nc1cc(=O)[nH]c(SCC(=O)Nc2ccc(N3CCOCC3)cc2)n1,> 54.2 µg/mL
2,Nc1ccc(C(=O)NCCCSc2ccccc2)cc1[N+](=O)[O-],1.6 µg/mL
3,CN(C)c1cccc(NC(=O)NC2(C)CCS(=O)(=O)C2)c1 (stereo not given),> 46.7 µg/mL
4,CCC(C)C12CN3CCN(CC(C)(C3)C1O)C2 (stereo not given),> 35.8 µg/mL
5,O=C(Nc1ccc2c(c1)CCC2)c1ncoc1-c1ccccc1F,< 0.3 µg/mL
6,O=C(Nc1cccnc1N1CCOCC1)c1cccs1,> 43.4 µg/mL
7,Cn1c(=O)c2c(nc(SCc3ccc(F)cc3)n2C)n(C)c1=O,2 µg/mL
8,CCOC(=O)c1[nH]cnc1C(=O)Nc1ccc(C)cc1,4.9 µg/mL
9,COc1ccccc1NC(=O)COC(=O)CCC1CCCC1,42.1 µg/mL
10,CC(=O)c1sc(NC(=O)c2cccs2)nc1C,2 µg/mL
11,COc1ccc(/C=C(\C#N)C(=O)NCc2ccccc2)cc1,2.2 µg/mL
12,Cc1ccc(NC(=O)CN2CCOCC2)c(Br)c1,> 47 µg/mL
13,CC(O)CCC(=O)NNC(=S)Nc1ccccc1 (stereo not given),> 40.1 µg/mL
14,S=C(Nc1cccc(Cl)c1Cl)N1CCCC1,15.7 µg/mL
15,CCOc1ccc2[nH]c3c(NCCOC)ncnc3c2c1,> 42.9 µg/mL
16,COc1cccc(NC(=O)NCc2ccccn2)c1,> 38.6 µg/mL
17,CC(C)CN(C(=O)CSc1nc(N)cc(N)n1)C1CCS(=O)(=O)C1 (stereo not given),> 56 µg/mL
18,COc1ccccc1CCC(=O)Nc1ncc(C)s1,2.5 µg/mL
19,O=C(O)/C(=C\c1ccco1)NC(=O)c1ccc(Br)o1,> 48.9 µg/mL
20,CCn1c(=NC(=O)C2COc3ccccc3O2)sc2c(C)ccc(OC)c21 (stereo not given),< 0.4 µg/mL
